Test results as given in patent US11191756B2, “Dosing and effect of C5a antagonist with ANCA-associated vasculitis” (CHEMOCENTRYX, INC., priority 2018, dated 2021).
“Also recorded” adds a separate entry of the source.

How the values were obtained:
Assay type in all cases: in vivo, human
sC5b-9 = assay: Plasma sC5b-9 by ELISA in AAV patients of the CLEAR trial; settings: for sC5b-9, change in plasma level (Summary of Results): AAV patients, 12 week treatment period, all also received cyclophosphamide or rituximab; for circulating sC5b-9 levels, change from baseline: any treatment group, 6 h, days 8, 29, 85
Protocol: (§1) The CLEAR trial (Jayne D R W, et al. JASN 2017; 28:2756) compared 3 regimens in 67 patients with AAV: (1) full dose prednisone (60 mg daily, tapered); (2) avacopan 30 mg twice daily plus low dose prednisone (20 mg, tapered); (3) avacopan 30 mg twice daily plus no prednisone. All also received either cyclophosphamide or rituximab. There was a 12-week treatment period with 12 week follow-up period
(§2) Plasma samples were collected from AAV patients who participated in CLEAR study at baseline and at 6 hour, Days 8, 29, and 85 during treatment. Plasma samples from 20 health controls matched for age, gender and ethnic background were collected at UNC Kidney Center.
(§3) EDTA whole blood was kept on ice immediately after collection and centrifuged at 4° C. for plasma preparation. Plasma samples were stored at −80° C. freezer until analysis for complement Bb, C5a, […] and properdin by ELISA in one thaw.
(§4) Paired t-test was used for within group comparison and unpaired t-test was used for between group comparisons using log transformed data. P-values were corrected for multiple comparisons.

patients with AAV = assay: CLEAR trial clinical outcome in ANCA-associated vasculitis; settings: for clinical benefit / improvement in AAV: 12 week treatment period, avacopan 30 mg twice daily
Source text: (A) plots the Birmingham Vasculitis Activity Score; (B) plots the urinary albumin to creatine ration; (C) plots the EuroQOL-5D-5L visual analgue scale; (D) plots the Short Form-36 physical functioning results; and (E) plots the Short Form-36 role emotional results. Patients receiving high dose prednisone are plotted with diamonds; patients receiving avacopan with low dose prednisone are plotted with squares; and patients receiving avacopan with no prednisone are plotted with triangles.
as §1

properdin = assay: Plasma properdin by ELISA in AAV patients of the CLEAR trial; settings: for Properdin, change in plasma level (Summary of Results): AAV patients, 12 week treatment period, all also received cyclophosphamide or rituximab; for circulating properdin levels, change from baseline: any treatment group, 6 h, days 8, 29, 85
Protocol: as §1, §2, §3, §4

complement factor Bb = assay: Plasma complement factor Bb by ELISA in AAV patients of the CLEAR trial; settings: for Bb, change in plasma level (Summary of Results): AAV patients, 12 week treatment period, all also received cyclophosphamide or rituximab
Protocol: as §1, §2, §3, §4

complement factor C3a = assay: Plasma complement factor C3a by ELISA in AAV patients of the CLEAR trial; settings: for C3a, change in plasma level (Summary of Results): AAV patients, 12 week treatment period, all also received cyclophosphamide or rituximab; for C3a levels compared to baseline: full dose prednisone
Protocol: as §1, §2, §3, §4

complement factor C5a = assay: Plasma complement factor C5a by ELISA in AAV patients of the CLEAR trial; settings: for C5a, change in plasma level (Summary of Results): AAV patients, 12 week treatment period, all also received cyclophosphamide or rituximab
Protocol: as §1, §2, §3, §4

[1] = CLEAR trial, AAV patients, avacopan with low dose or no prednisone
[2] = day 85, when prednisone was tapered

Row | SMILES | sC5b-9, change in plasma level (Summary of Results) (sC5b-9) | circulating sC5b-9 levels, change from baseline (sC5b-9) | Properdin, change in plasma level (Summary of Results) (properdin) | circulating properdin levels, change from baseline (properdin) | Bb, change in plasma level (Summary of Results) (complement factor Bb) | C3a, change in plasma level (Summary of Results) (complement factor C3a) | C5a, change in plasma level (Summary of Results) (complement factor C5a) | also measured
1 | Cc1ccc(NC(=O)[C@H]2CCCN(C(=O)c3c(C)cccc3F)[C@H]2c2ccc(NC3CCCC3)cc2)cc1C(F)(F)F [Avacopan, avacopan] | No changes | did not change; also recorded: No statistically significant changes | No changes | No statistically significant changes | No changes | No changes | No changes | clinical benefit / improvement in AAV (patients with AAV): achieved clinical benefit; also recorded: rapid improvement; clinical benefit / improvement in AAV (patients with AAV; listed as avacopan): rapidly improves; disease activity (Birmingham Vasculitis Activity Score, urinary albumin to creatinine ratio) (patients with AAV; [1]): rapid decrease; health-related quality of life (EuroQOL-5D-5L, Short Form-36) (patients with AAV; [1]): significant improvement; Bb levels during treatment compared to pre-dose (complement factor Bb; avacopan 30 mg twice daily with low dose or no prednisone, 6 h, days 8, 29, 85): did not impact; also recorded: No change; C3a levels during treatment compared to baseline (complement factor C3a; avacopan 30 mg twice daily without prednisone, 6 h, days 8, 29, 85): did not impact; also recorded: No change; C5a levels during treatment compared to baseline (complement factor C5a; avacopan 30 mg twice daily with low or no prednisone, 6 h, days 8, 29, 85): did not impact; also recorded: No change
2 | C[C@]12C=CC(=O)C=C1CC[C@@H]1[C@@H]2C(=O)C[C@@]2(C)[C@H]1CC[C@]2(O)C(=O)CO [Prednisone, prednisone] | No changes | No statistically significant changes | No changes | No statistically significant changes | ↓ | ↓ | ↓ | Bb levels (complement factor Bb; [2]): rising again; also recorded: rose again; Bb levels compared to pre-dose (complement factor Bb; days 8 and 29, full dose prednisone 60 mg daily, tapered): decreased significantly; C3a levels compared to baseline (complement factor C3a; 6 hours): decreased; C3a levels (complement factor C3a; [2]): rising again; also recorded: rose again; C3a levels compared to baseline (complement factor C3a; days 8 and 29): decreased significantly; also recorded: further decreased; C5a levels compared to baseline (complement factor C5a; day 8 and 29, high dose prednisone): decreased significantly; also recorded: decrease; C5a levels (complement factor C5a; [2]): rising again; also recorded: rose again
